Inhibition data for 9 compounds are collected here from ChEMBL document CHEMBL3091364, “Benzyloxybenzylammonium chlorides: Simple amine salts that display anticonvulsant activity” (Bioorg Med Chem, 2013).

The term inhibition denotes the change of the read-out against control, counted positive when it falls.

The target of experiment [1] is Sigma non-opioid intracellular receptor 1 (Homo sapiens) (UniProt Q99720). The experiment can be described thus: Inhibition of sigma-1 receptor (unknown origin) at 10 uM relative to control.
Sigma non-opioid intracellular receptor 1 (Homo sapiens), sequence (Q99720 whole entry): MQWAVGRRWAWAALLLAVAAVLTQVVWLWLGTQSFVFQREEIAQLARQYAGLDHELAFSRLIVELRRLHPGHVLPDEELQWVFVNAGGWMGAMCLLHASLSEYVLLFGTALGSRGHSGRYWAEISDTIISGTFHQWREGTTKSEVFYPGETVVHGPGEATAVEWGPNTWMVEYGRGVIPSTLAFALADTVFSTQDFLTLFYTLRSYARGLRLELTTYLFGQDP
Experiment [2] addresses T1, Muscarinic acetylcholine receptor M4 (Homo sapiens) (UniProt P08173).
T1 sequence (whole entry): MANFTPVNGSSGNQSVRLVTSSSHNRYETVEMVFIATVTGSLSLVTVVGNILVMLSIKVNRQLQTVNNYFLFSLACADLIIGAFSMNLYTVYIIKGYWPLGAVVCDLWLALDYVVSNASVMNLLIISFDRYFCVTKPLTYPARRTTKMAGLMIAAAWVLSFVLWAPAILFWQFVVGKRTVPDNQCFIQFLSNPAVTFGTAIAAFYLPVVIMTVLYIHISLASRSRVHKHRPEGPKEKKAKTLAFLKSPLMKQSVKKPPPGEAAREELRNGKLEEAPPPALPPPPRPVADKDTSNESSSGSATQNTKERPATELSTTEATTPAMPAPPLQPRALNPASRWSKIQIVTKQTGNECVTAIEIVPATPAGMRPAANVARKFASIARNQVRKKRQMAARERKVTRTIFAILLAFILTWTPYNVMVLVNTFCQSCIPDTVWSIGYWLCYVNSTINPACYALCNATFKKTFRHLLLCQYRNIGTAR
The experiment can be described thus: Inhibition of muscarinergic M4 receptor (unknown origin) at 10 uM relative to control.

The target in experiment [3] is T2, Alpha-1B adrenergic receptor (Homo sapiens) (UniProt P35368).
T2 sequence (whole entry): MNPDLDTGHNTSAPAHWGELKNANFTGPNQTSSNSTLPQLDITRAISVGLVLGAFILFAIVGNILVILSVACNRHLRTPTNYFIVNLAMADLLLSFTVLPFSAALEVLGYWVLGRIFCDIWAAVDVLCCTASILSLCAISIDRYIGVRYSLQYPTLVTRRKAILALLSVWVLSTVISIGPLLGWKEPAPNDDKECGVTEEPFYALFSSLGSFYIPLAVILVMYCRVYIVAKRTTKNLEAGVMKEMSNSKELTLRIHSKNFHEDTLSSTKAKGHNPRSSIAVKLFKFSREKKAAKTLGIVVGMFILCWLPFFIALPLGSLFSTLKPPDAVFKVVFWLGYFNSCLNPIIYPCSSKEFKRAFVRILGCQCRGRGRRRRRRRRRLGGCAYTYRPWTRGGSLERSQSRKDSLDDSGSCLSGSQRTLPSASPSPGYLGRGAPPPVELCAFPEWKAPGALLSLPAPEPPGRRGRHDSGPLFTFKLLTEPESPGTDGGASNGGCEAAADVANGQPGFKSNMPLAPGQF
Nature of the experiment: Inhibition of adrenergic alpha-1B receptor (unknown origin) at 10 uM relative to control.

Experiment [4] concerns the target T3, Alpha-2B adrenergic receptor (Homo sapiens) (UniProt P18089).
T3 sequence (whole entry): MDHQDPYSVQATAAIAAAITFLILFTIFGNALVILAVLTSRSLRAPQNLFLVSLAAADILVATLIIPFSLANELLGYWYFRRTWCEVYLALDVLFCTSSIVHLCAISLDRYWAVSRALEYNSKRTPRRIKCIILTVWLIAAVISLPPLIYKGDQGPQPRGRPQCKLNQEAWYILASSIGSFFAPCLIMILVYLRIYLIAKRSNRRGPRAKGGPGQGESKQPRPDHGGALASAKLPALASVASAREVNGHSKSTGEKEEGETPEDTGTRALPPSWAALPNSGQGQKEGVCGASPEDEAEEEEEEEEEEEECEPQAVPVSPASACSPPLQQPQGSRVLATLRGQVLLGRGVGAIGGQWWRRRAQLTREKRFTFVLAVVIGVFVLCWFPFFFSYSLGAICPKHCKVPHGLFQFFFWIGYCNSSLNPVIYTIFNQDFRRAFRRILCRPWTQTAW
The experiment can be described thus: Inhibition of adrenergic alpha-2B receptor (unknown origin) at 10 uM relative to control.

Experiment [5] deals with Sodium-dependent noradrenaline transporter (Homo sapiens) (UniProt P23975). The experiment can be described thus: Inhibition of NET (unknown origin) at 10 uM relative to control.
Sodium-dependent noradrenaline transporter (Homo sapiens), sequence (P23975 whole entry): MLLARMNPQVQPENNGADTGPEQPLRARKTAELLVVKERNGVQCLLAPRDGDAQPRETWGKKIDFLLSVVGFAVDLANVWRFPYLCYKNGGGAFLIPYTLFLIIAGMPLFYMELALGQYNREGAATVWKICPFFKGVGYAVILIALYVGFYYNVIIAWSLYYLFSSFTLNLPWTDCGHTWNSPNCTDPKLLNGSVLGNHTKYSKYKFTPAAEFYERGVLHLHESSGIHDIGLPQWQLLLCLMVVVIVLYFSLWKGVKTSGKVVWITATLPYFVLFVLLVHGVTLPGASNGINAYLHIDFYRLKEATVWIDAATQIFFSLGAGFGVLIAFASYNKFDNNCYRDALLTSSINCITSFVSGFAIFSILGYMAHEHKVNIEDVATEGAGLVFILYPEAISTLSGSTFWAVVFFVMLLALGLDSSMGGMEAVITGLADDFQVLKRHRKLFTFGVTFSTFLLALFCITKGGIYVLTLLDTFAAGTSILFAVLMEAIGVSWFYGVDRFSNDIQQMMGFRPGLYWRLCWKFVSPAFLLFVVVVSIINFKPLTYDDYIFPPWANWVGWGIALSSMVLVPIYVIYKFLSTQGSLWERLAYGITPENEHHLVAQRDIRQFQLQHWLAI
The target in experiment [6] is Histamine H2 receptor (Homo sapiens) (UniProt P25021). Nature of the experiment: Inhibition of histamine H2 receptor (unknown origin) at 10 uM relative to control.
Histamine H2 receptor (Homo sapiens), sequence (P25021 whole entry): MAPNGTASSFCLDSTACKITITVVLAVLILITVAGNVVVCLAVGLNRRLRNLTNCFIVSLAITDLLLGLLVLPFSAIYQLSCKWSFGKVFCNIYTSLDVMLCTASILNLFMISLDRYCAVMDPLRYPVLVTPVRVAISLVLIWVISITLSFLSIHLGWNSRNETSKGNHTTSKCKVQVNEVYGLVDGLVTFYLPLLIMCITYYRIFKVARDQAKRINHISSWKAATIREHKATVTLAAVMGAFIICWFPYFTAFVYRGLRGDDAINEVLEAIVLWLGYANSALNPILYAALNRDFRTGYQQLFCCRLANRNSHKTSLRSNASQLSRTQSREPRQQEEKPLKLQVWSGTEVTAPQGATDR
Experiment [7] concerns the target T4, Muscarinic acetylcholine receptor M5 (Homo sapiens) (UniProt P08912).
T4 sequence (whole entry): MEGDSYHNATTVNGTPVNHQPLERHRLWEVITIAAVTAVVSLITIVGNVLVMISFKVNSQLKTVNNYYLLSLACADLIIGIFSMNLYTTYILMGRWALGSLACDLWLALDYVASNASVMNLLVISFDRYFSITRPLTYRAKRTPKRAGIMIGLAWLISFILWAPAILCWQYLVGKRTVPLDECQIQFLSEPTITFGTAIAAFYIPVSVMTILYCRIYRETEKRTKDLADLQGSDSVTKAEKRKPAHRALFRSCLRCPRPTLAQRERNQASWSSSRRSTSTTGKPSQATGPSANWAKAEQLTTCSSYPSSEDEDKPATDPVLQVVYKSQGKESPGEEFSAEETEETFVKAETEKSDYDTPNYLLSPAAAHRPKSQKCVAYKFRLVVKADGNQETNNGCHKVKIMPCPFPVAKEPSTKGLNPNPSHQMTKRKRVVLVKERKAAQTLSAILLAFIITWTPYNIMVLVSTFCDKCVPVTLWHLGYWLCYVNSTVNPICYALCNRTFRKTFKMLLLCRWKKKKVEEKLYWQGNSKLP
Nature of the experiment: Inhibition of muscarinergic M5 receptor (unknown origin) at 10 uM relative to control.

Experiment [8] concerns the target Beta-2 adrenergic receptor (Homo sapiens) (UniProt P07550). Nature of the experiment: Inhibition of adrenergic beta-2 receptor (unknown origin) at 10 uM relative to control.
Experiment [9] addresses T5, Muscarinic acetylcholine receptor M1 (Homo sapiens) (UniProt P11229).
T5 sequence (whole entry): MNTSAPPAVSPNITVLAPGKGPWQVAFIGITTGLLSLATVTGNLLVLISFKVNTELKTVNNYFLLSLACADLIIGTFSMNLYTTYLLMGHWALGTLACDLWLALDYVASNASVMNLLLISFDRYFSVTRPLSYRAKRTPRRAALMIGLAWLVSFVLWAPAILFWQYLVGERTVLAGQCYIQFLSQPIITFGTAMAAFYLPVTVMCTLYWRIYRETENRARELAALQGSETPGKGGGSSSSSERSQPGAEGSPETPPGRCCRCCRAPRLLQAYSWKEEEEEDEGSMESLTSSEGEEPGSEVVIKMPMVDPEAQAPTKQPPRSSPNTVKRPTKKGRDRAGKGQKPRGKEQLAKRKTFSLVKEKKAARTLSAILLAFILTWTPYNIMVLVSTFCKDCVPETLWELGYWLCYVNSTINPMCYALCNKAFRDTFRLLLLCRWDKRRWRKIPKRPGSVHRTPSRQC
Nature of the experiment: Inhibition of muscarinergic M1 receptor (unknown origin) at 10 uM relative to control.

Beta-2 adrenergic receptor (Homo sapiens), sequence (P07550 whole entry, looked up): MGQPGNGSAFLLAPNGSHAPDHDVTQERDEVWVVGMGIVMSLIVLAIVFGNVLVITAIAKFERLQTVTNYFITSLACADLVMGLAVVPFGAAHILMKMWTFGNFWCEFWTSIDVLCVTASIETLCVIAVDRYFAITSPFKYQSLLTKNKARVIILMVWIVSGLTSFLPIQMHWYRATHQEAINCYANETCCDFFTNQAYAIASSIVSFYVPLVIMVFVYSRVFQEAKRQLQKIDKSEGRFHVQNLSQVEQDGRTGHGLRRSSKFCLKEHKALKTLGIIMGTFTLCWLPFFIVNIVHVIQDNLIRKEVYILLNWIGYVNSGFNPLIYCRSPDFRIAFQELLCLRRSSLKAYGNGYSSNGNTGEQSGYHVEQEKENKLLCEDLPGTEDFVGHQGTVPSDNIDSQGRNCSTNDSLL

For the compound `Cl.NCc1ccc(OCc2cccc(OC(F)(F)F)c2)cc1`, the inhibition in experiment [1] is 96.9%; in [2] it was 4.3%; in [3], -3.8%; in experiment [4], 44.3%; in [5] it was 58.5%; in experiment [6] it was 4.2%. Moreover, the inhibition is 0.8% in experiment [7] and -8.1% in experiment [8].
`Cl.NCc1ccc(OCc2cccc(Cl)c2)cc1`: the inhibition in [9] was 17.6%; in experiment [1], 89.4%; in experiment [2], 0.2%; in [3] it was 11.4%; in [4], 72%; in [5] it was 83.9%. Also, the inhibition in [6] was -7.4%; in experiment [7], 17.7%; in experiment [8] it was -5.7%.
In the case of `Cl.NCc1ccc(OCc2ccc(F)cc2)cc1`, the inhibition in experiment [9] is 18.6%; in experiment [1] it was 92.7%; in experiment [2], 10.4%; in [4] it was 37%; in experiment [5], 59.9%; in [6], 29.7%. Further, the inhibition in [7] turned out to be 6.4%; in experiment [8], 2.2%.
Take `Cl.NCc1ccc(OCc2cccc(F)c2)cc1`: the inhibition in experiment [9] stood at 37.5%; in [1], 102%; in [3], 24.8%; in [4], 51.3%; in [5], 76.1%; in [8], 9.2%.
Turning to `Cl.NCc1ccc(OCc2ccccc2)cc1`, the inhibition in experiment [9] is 28.9%; in experiment [1], 97.7%; in experiment [3] it was 0.5%; in [4] it was 27.3%; in [5] it was 63.6%; in experiment [6], -4%. Moreover, the inhibition in [7] is -2.7%; in experiment [8], 11.8%.
Take `Cl.NCc1ccc(OCc2ccc(Cl)cc2)cc1`: the inhibition stood at 18.8% in [9]; 90.6% in experiment [1]; 3.5% in experiment [2]; 51.6% in experiment [4]; 64.7% in experiment [5]; 16.8% in experiment [6]. The inhibition in experiment [7] is 13.6%; in [8], 17.1%.
`Cl.NCc1ccc(OCc2ccc(OC(F)(F)F)cc2)cc1`: the inhibition in [9] is 26.6%; in experiment [1], 91.1%; in experiment [2], -4.7%; in experiment [3], 4.1%; in experiment [4], 49.9%; in [5] it was 60.1%. The values for the inhibition in experiment [6], in experiment [7] and in [8] were -2.7%, 1.7% and 9.1%, respectively.
Turning to `Cl.NCc1ccc(OCc2ccccc2F)cc1`, the inhibition was 42% in [9]; 102% in experiment [1]; -9% in [2]; 13.6% in experiment [3]; 30.9% in experiment [4]; 61.3% in experiment [5]. Besides, the inhibition in [6] is 1.6%; in experiment [7], -8.5%; in experiment [8], 17.4%.
With `Cl.NCc1ccc(OCc2ccccc2OC(F)(F)F)cc1`, the inhibition in [9] was 67.3%; in experiment [1] it was 92.9%; in experiment [2], 1.6%; in [3], -2.4%; in experiment [4] it was 29.5%; in experiment [5], 29.3%. The inhibition in experiment [6] was 5.8%; in experiment [7] it was 0.4%; in experiment [8], 5%.
